Read-outs that look alike come from different tables or passages of the source.
What was measured:
[1] = biological target: hH3R; settings: previously reported competition binding studies, cited from earlier work
[2] = biological target: T1, human histamine H3 receptor (hH3R) (Homo sapiens, UniProt Q9Y5N1); assay: BRET between Venus-Gβ1γ2 and masGRK3ct-Nluc to measure hH3R-induced Gαi2 activation in HEK293T cells; assay type: cell-based; settings: for agonist efficacy class in the Gβ1γ2 release assay: HEK293T cells co-expressing hH3R and Gαi2; for intrinsic activity (α) / pEC50 ± S.E.M.: hH3R-mediated Gαi2 activation in HEK293T cells; for inhibition of Venus-Gβ1γ2 recruitment to masGRK3ct-Nluc in response to 1 µM histamine: antagonist 10 µM; for pEC50 ± S.E.M.: BRET ratio after 10 min, mean ± S.E.M. of three experiments
T1 construct: expressed in transfected cells; host or cells: HEK293T cells, transient transfection (hH3R in pcDEF3)
Protocol: Cells were transiently transfected in a 10 cm^2 dish with plasmids coding for Venus155-239-Gβ1 (0.4 µg), Venus1-155-Gγ2 (0.4 µg), masGRK3ct-Nluc (0.4 µg), hH3R (0.4 µg), Gαi2-protein (1.2 µg), and empty pcDEF3 (2.2 µg) using 20 µg 25 kDa linear polyethylenimine (Polysciences Inc, Warrington, PA, USA), as previously described. The next day, 50,000 cells/well were transferred to a poly-L-lysine coated black 96 well plates (Greiner Bio-one GmbH, Frickenhausen, Germany) and grown for an additional 24 h.
(§1) Agonist-induced BRET between Venus-Gβ1γ2 and masGRK3ct-Nluc was measured on adherent HEK293T cells co-expressing hH3R and Gαi2 in the presence of NanoGlo® (3.2 µL/mL) using a Mithras LB940 multimode microplate reader (Berthold, Germany). Cells were stimulated with histamine in the absence and presence of antagonist in HBSS buffer, and BRET (540–40 nm) and luminescence (480–20 nm) signals were monitored either immediately or after 10 min at 25 °C. […] Next, cells were incubated in HBSS and stimulated with 10 μM imetit after various incubation times. BRET between Venus-G1βγ2 and masGRK3ct-Nluc was immediately measured upon imetit stimulation and BRET ratio after 10 s were plotted. Re-equilibration of pre-bound antagonists was measured upon pre-incubation of the cells with increasing concentrations of antagonist for one hour prior to the addition of increasing concentrations imetit or VUF8328 and BRET ratio was calculated either immediately after agonist addition (0–3 min) or after 10 min re-equilibration.
Ligand-induced BRET changes were calculated by dividing emission at 540–40 nm (Venus) by emission at 480–20 nm (Nluc) and baseline-corrected by subtracting BRET of vehicle. […] Agonist and antagonist concentration-response curves were fitted to three-parameter response models to obtain EC50 and IC50 values, respectively. […] For receptor recovery the vehicle corrected BRET ratio at 10 s after agonist addition was plotted over time.

[3] = biological target: T1, human histamine H3 receptor (hH3R); assay: Re-equilibration of pre-bound antagonist, Schild-plot analysis (BRET Gβ1γ2 release assay); assay type: cell-based; settings: for type of antagonism after 10 min re-equilibration: VUF8328, 1 h antagonist pre-incubation; for type of antagonism, response measured directly following agonist stimulation: imetit or VUF8328, 1 h antagonist pre-incubation
Protocol: Receptor-induced Venus-Gβ1γ2 recruitment to masGRK3ct-Nluc can be detected after different time intervals following stimulation with agonist, which offers the opportunity to evaluate the re-equilibration time of pre-bound antagonist within the same agonist-induced response. Cells were pre-incubated for 1 h with multiple concentrations of antagonist and subsequently stimulated with increasing concentrations agonist and BRET ratio was calculated either immediately after agonist addition or after 10 min re-equilibration (Figure 3A).
as §1
Equiactive agonist concentrations for Schild analysis were determined from concentration response curves at 10 % max agonist response (vide supra) in the absence and presence of increasing antagonist concentrations. Dose ratios (DR) were calculated by dividing the equiactive agonist concentration in the presence of antagonist by the equiactive agonist concentration in the absence of antagonist.

[4] = system: H3R; parameters: method as in PMID 30249614, PMID 30359639; settings: intact HEK293T cells; cited from earlier work
[5] = biological target: T1, human histamine H3 receptor (hH3R); assay: Recovery of hH3R responsiveness after washout of pre-bound antagonist (BRET Gβ1γ2 release assay); assay type: cell-based; settings: for RecT (receptor recovery time, 1/krec): 1 h pre-incubation at 10 × IC50, washout, 10 µM imetit, measured in singlo; for recovery of H3R-induced Gβ1γ2 release to steady-state level upon washout: agonist stimulation after washout of pre-bound antagonist
Protocol: Cells were then stimulated with a saturating concentration of imetit (10 µM) after different time intervals and BRET changes between Venus-Gβ1γ2 and masGRK3ct-Nluc were measured directly and BRET ratio 10 s after agonist stimulation were plotted (Figure 2A,B).
as §1
The receptor recovery time (RecT) was calculated as the reciprocal of the krec.

[6] = system: hH3R; parameters: method as in PMID 30249614; settings: CAMYEL biosensor; cited from earlier work
[7] = 1 h antagonist pre-incubation, agonist VUF8328, BRET after 10 min re-equilibration
[8] = 1 h antagonist pre-incubation, agonist VUF8328, BRET measured immediately
[9] = 1 h antagonist pre-incubation, agonist imetit, BRET measured immediately

T1 sequence (Q9Y5N1 whole entry): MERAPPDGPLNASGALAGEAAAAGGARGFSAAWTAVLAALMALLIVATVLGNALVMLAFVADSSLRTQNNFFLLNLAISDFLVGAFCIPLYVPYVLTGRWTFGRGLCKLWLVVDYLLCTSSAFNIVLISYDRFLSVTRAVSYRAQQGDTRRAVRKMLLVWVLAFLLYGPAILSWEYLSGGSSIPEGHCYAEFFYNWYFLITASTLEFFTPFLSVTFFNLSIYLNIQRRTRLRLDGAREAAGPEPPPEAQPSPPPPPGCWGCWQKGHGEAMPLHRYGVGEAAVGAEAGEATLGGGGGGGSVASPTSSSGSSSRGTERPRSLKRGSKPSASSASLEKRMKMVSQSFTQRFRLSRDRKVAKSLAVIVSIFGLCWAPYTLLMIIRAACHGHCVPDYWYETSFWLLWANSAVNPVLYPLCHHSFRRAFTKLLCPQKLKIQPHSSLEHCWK

Compound: NCCc1c[nH]cn1 [Histamine, histamine]
- pKi ([1]; agonists): 6.7

Compound: N=C(N)SCCc1cnc[nH]1 [Imetit]
- EC50 [2]: 0.251 nM
- agonist efficacy class in the Gβ1γ2 release assay [2]: full agonist
- intrinsic activity (α) ([2]; mean ± S.E.M.): 1.1 ± 0.1
- pKi ([1]; agonists): 8.6

Compound: CN1CCN(C(=O)c2cc3cc(Cl)ccc3[nH]2)CC1 [JNJ7777120]
- inhibition of Venus-Gβ1γ2 recruitment to masGRK3ct-Nluc in response to 1 µM histamine [2]: ineffective

Compound: CCNC(=O)[C@H]1C[C@@](F)(c2ccc(CN3CCCC3)c(F)c2)C1 [PF03654746]
- Schild slope, VUF8328 (10 min) [3, 7]: 1.2 ± 0.1
- pA2, VUF8328 (10 min) [3, 7]: 9.6 ± 0.2
- Schild slope, VUF8328 (0 min) [3, 8]: 1.5 ± 0.2
- pA2, VUF8328 (0 min) [3, 8]: 9.3 ± 0.2
- Schild slope, Imetit (0 min) [3, 9]: 1.0 ± 0.1
- pA2, Imetit (0 min) [3, 9]: 9.8 ± 0.1
- type of antagonism after 10 min re-equilibration [3]: near-surmountable
- type of antagonism, response measured directly following agonist stimulation [3]: insurmountable antagonists
- residence time [4]: approximately 15 min
- RecT (receptor recovery time, 1/krec) [5]: 3.6 ± 0.3 min
- hH3R recovery slower than upon washout of iodophenpropit and pitolisant ([5]; after antagonist washout): 2 to 2.5 fold
- recovery of H3R-induced Gβ1γ2 release to steady-state level upon washout [5]: < 20 min
- pKB ([2]; calculated from IC50 values, inhibition of histamine-induced (1 µM) BRET ratio, 10 min, mean ± S.E.M.): 9.9 ± 0.1
- pKi ([1]; antagonists): 9.3

Compound: Clc1ccc(CCCOCCCN2CCCCC2)cc1 [Pitolisant]
- Schild slope, VUF8328 (10 min) [3, 7]: 1.1 ± 0.1
- Schild slope, VUF8328 (0 min) [3, 8]: 1.4 ± 0.0
- Schild slope, Imetit (0 min) [3, 9]: 1.1 ± 0.0
- type of antagonism after 10 min re-equilibration [3]: surmountable
- type of antagonism, response measured directly following agonist stimulation [3]: insurmountable antagonists
- RecT (receptor recovery time, 1/krec) [5]: 1.7 ± 0.3 min
- recovery of H3R-induced Gβ1γ2 release to steady-state level upon washout [5]: < 20 min
- inhibition of Venus-Gβ1γ2 recruitment to masGRK3ct-Nluc in response to 1 µM histamine [2]: fully inhibited
- time to full recovery of hH3R responsiveness following washout [6]: > 30 min

Compound: N=C(N)SCCCc1cnc[nH]1 [VUF8328]
- agonist efficacy class in the Gβ1γ2 release assay [2]: partial agonist
- pEC50 ± S.E.M. [2]: 9.4 ± 0.1
- intrinsic activity (α) ([2]; mean ± S.E.M.): 0.7 ± 0.2
- pKi ([1]; agonists): 8.5

Compound: c1ncc(CC2CCNCC2)[nH]1 [immepip]
- agonist efficacy class in the Gβ1γ2 release assay [2]: full agonist
- pEC50 ± S.E.M. [2]: 9.9 ± 0.1
- intrinsic activity (α) ([2]; mean ± S.E.M.): 1.0 ± 0.1
- pKi ([1]; agonists): 8.8

Compound: COc1ccc(CN(CCN(C)C)c2ccccn2)cc1 [mepyramine]
- inhibition of Venus-Gβ1γ2 recruitment to masGRK3ct-Nluc in response to 1 µM histamine [2]: ineffective

Compound: CNC(=NCCSCc1csc(N=C(N)N)n1)NC#N [tiotidine]
- inhibition of Venus-Gβ1γ2 recruitment to masGRK3ct-Nluc in response to 1 µM histamine [2]: ineffective

— article PMC6695674, “Bioluminescence Resonance Energy Transfer Based G Protein-Activation Assay to Probe Duration of Antagonism at the Histamine H3 Receptor” (International Journal of Molecular Sciences, 2019)
